Assay results from patent US8968883B2, “Chrysene derivative materials” (E I du Pont de Nemours and Company, priority 2009, dated 2015).
≈ marks a conversion by molar mass, not a printed value.

Test: Solubility in processing solvents (Table 1, Compound Properties)
Assay type: physicochemical
Conditions: for Solubility anisole: solvent anisole; for Solubility toluene: solvent toluene
Experimental: It is also noted that solubility of the chrysene derivative materials in processing solvents can be adjusted to satisfy solution processing requirements. In some embodiments the solubility of chrysene derivatives in toluene and anisole is higher than 20 mg per ml of solvent. High solubility allows for better solution processing of electroactive devices.

| Compound | Solubility anisole [mg/mL] | Solubility toluene [mg/mL] | solubility properties (compared with compound C1 of Table 1) |
| --- | --- | --- | --- |
| Cc1ccc(N(c2ccc(-c3ccc(-c4ccccc4)cc3)cc2)c2ccc3ccc4c5ccccc5ccc4c3c2)c(C)c1 [Compound C4] | 3.6 (≈ 6.25 mM) | 1.0 (≈ 1.74 mM) |  |
| c1ccc(-c2ccc(N(c3ccc(-c4cccc5ccccc45)cc3)c3ccc4ccc5c6ccccc6ccc5c4c3)cc2)cc1 [Compound C5] | 23.7 (≈ 39.6 mM) | 24.4 (≈ 40.8 mM) |  |
| CC(C)(C)c1ccc(N(c2ccc(-c3ccccc3)cc2)c2ccc3ccc4c5ccccc5ccc4c3c2)cc1 [Compound C3, N-(biphenyl-4-yl)-N-(4-tert-butylphenyl)chrysene-3-amine] | 22.4 (≈ 42.4 mM) | 22.2 (≈ 42.1 mM) |  |
| [2H]c1c([2H])c([2H])c(-c2c([2H])c([2H])c(N(c3c([2H])c([2H])c(-c4c([2H])c([2H])c([2H])c(-c5c([2H])c([2H])c([2H])c([2H])c5[2H])c4[2H])c([2H])c3[2H])c3c([2H])c([2H])c4c([2H])c([2H])c5c6c([2H])c([2H])c([2H])c([2H])c6c([2H])c([2H])c5c4c3[2H])c([2H])c2[2H])c([2H])c1[2H] [Compound C2, Perdeutero-N-([1,1′-biphenyl]-4-yl)-N-([1,1′:3′,1″-terphenyl]-4-yl)chrysen-3-amine] |  |  | very similar to those of compound C1 |
| c1ccc(-c2ccc(N(c3ccc(-c4cccc(-c5ccccc5)c4)cc3)c3ccc4ccc5c6ccccc6ccc5c4c3)cc2)cc1 [Compound C1] | 23.9 (≈ 38.3 mM) | 24.6 (≈ 39.4 mM) |  |
